Assay results reported in the NIST ThermoML archive (doi:10.1021/je800999s).
± gives the expanded uncertainty stated by the source.

Assay: molar heat capacity at constant pressure; xn = mol fraction of the nth substance listed
Conditions: 101 kPa, Liquid, Large sample (1 g) DSC

SMILES: O=S1(=O)CCCC1 [sulfolane] + O
- molar heat capacity at constant pressure (303.15 K, x1 = 0.0999): 87 ± 4 J/K/mol
- molar heat capacity at constant pressure (303.15 K, x1 = 0.1998): 100 ± 4 J/K/mol
- molar heat capacity at constant pressure (303.15 K, x1 = 0.2987): 112 ± 5 J/K/mol
- molar heat capacity at constant pressure (303.15 K, x1 = 0.3995): 124 ± 5 J/K/mol
- molar heat capacity at constant pressure (303.15 K, x1 = 0.4945): 135 ± 6 J/K/mol
- molar heat capacity at constant pressure (303.15 K, x1 = 0.5987): 145 ± 6 J/K/mol
- molar heat capacity at constant pressure (303.15 K, x1 = 0.6984): 155 ± 7 J/K/mol
- molar heat capacity at constant pressure (303.15 K, x1 = 0.7904): 164 ± 7 J/K/mol
- molar heat capacity at constant pressure (303.15 K, x1 = 0.8865): 173 ± 7 J/K/mol
- molar heat capacity at constant pressure (303.15 K, x1 = 1): 182 ± 8 J/K/mol
- molar heat capacity at constant pressure (308.15 K, x1 = 0.0999): 88 ± 4 J/K/mol
- molar heat capacity at constant pressure (308.15 K, x1 = 0.1998): 100 ± 4 J/K/mol
- molar heat capacity at constant pressure (308.15 K, x1 = 0.2987): 113 ± 5 J/K/mol
- molar heat capacity at constant pressure (308.15 K, x1 = 0.3995): 125 ± 5 J/K/mol
- molar heat capacity at constant pressure (308.15 K, x1 = 0.4945): 136 ± 6 J/K/mol
- molar heat capacity at constant pressure (308.15 K, x1 = 0.5987): 147 ± 6 J/K/mol
- molar heat capacity at constant pressure (308.15 K, x1 = 0.6984): 156 ± 7 J/K/mol
- molar heat capacity at constant pressure (308.15 K, x1 = 0.7904): 166 ± 7 J/K/mol
- molar heat capacity at constant pressure (308.15 K, x1 = 0.8865): 175 ± 7 J/K/mol
- molar heat capacity at constant pressure (308.15 K, x1 = 1): 184 ± 8 J/K/mol
- molar heat capacity at constant pressure (313.15 K, x1 = 0.0999): 88 ± 4 J/K/mol
- molar heat capacity at constant pressure (313.15 K, x1 = 0.1998): 101 ± 4 J/K/mol
- molar heat capacity at constant pressure (313.15 K, x1 = 0.2987): 114 ± 5 J/K/mol
- molar heat capacity at constant pressure (313.15 K, x1 = 0.3995): 126 ± 5 J/K/mol
- molar heat capacity at constant pressure (313.15 K, x1 = 0.4945): 137 ± 6 J/K/mol
- molar heat capacity at constant pressure (313.15 K, x1 = 0.5987): 148 ± 6 J/K/mol
- molar heat capacity at constant pressure (313.15 K, x1 = 0.6984): 157 ± 7 J/K/mol
- molar heat capacity at constant pressure (313.15 K, x1 = 0.7904): 167 ± 7 J/K/mol
- molar heat capacity at constant pressure (313.15 K, x1 = 0.8865): 176 ± 7 J/K/mol
- molar heat capacity at constant pressure (313.15 K, x1 = 1): 185 ± 8 J/K/mol
- molar heat capacity at constant pressure (318.15 K, x1 = 0.0999): 88 ± 4 J/K/mol
- molar heat capacity at constant pressure (318.15 K, x1 = 0.1998): 102 ± 4 J/K/mol
- molar heat capacity at constant pressure (318.15 K, x1 = 0.2987): 114 ± 5 J/K/mol
- molar heat capacity at constant pressure (318.15 K, x1 = 0.3995): 127 ± 5 J/K/mol
- molar heat capacity at constant pressure (318.15 K, x1 = 0.4945): 138 ± 6 J/K/mol
- molar heat capacity at constant pressure (318.15 K, x1 = 0.5987): 149 ± 6 J/K/mol
- molar heat capacity at constant pressure (318.15 K, x1 = 0.6984): 159 ± 7 J/K/mol
- molar heat capacity at constant pressure (318.15 K, x1 = 0.7904): 168 ± 7 J/K/mol
- molar heat capacity at constant pressure (318.15 K, x1 = 0.8865): 177 ± 8 J/K/mol
- molar heat capacity at constant pressure (318.15 K, x1 = 1): 186 ± 8 J/K/mol
- molar heat capacity at constant pressure (323.15 K, x1 = 0.0999): 89 ± 4 J/K/mol
- molar heat capacity at constant pressure (323.15 K, x1 = 0.1998): 102 ± 4 J/K/mol
- molar heat capacity at constant pressure (323.15 K, x1 = 0.2987): 115 ± 5 J/K/mol
- molar heat capacity at constant pressure (323.15 K, x1 = 0.3995): 128 ± 5 J/K/mol
- molar heat capacity at constant pressure (323.15 K, x1 = 0.4945): 139 ± 6 J/K/mol
- molar heat capacity at constant pressure (323.15 K, x1 = 0.5987): 150 ± 6 J/K/mol
- molar heat capacity at constant pressure (323.15 K, x1 = 0.6984): 160 ± 7 J/K/mol
- molar heat capacity at constant pressure (323.15 K, x1 = 0.7904): 170 ± 7 J/K/mol
- molar heat capacity at constant pressure (323.15 K, x1 = 0.8865): 179 ± 8 J/K/mol
- molar heat capacity at constant pressure (323.15 K, x1 = 1): 188 ± 8 J/K/mol
- molar heat capacity at constant pressure (328.15 K, x1 = 0.0999): 89 ± 4 J/K/mol
- molar heat capacity at constant pressure (328.15 K, x1 = 0.1998): 103 ± 4 J/K/mol
- molar heat capacity at constant pressure (328.15 K, x1 = 0.2987): 116 ± 5 J/K/mol
- molar heat capacity at constant pressure (328.15 K, x1 = 0.3995): 129 ± 6 J/K/mol
- molar heat capacity at constant pressure (328.15 K, x1 = 0.4945): 141 ± 6 J/K/mol
- molar heat capacity at constant pressure (328.15 K, x1 = 0.5987): 152 ± 6 J/K/mol
- molar heat capacity at constant pressure (328.15 K, x1 = 0.6984): 162 ± 7 J/K/mol
- molar heat capacity at constant pressure (328.15 K, x1 = 0.7904): 172 ± 7 J/K/mol
- molar heat capacity at constant pressure (328.15 K, x1 = 0.8865): 181 ± 8 J/K/mol
- molar heat capacity at constant pressure (328.15 K, x1 = 1): 189 ± 8 J/K/mol
- molar heat capacity at constant pressure (333.15 K, x1 = 0.0999): 89 ± 4 J/K/mol
- molar heat capacity at constant pressure (333.15 K, x1 = 0.1998): 104 ± 4 J/K/mol
- molar heat capacity at constant pressure (333.15 K, x1 = 0.2987): 117 ± 5 J/K/mol
- molar heat capacity at constant pressure (333.15 K, x1 = 0.3995): 130 ± 6 J/K/mol
- molar heat capacity at constant pressure (333.15 K, x1 = 0.4945): 142 ± 6 J/K/mol
- molar heat capacity at constant pressure (333.15 K, x1 = 0.5987): 153 ± 7 J/K/mol
- molar heat capacity at constant pressure (333.15 K, x1 = 0.6984): 164 ± 7 J/K/mol
- molar heat capacity at constant pressure (333.15 K, x1 = 0.7904): 173 ± 7 J/K/mol
- molar heat capacity at constant pressure (333.15 K, x1 = 0.8865): 183 ± 8 J/K/mol
- molar heat capacity at constant pressure (333.15 K, x1 = 1): 191 ± 8 J/K/mol
- molar heat capacity at constant pressure (338.15 K, x1 = 0.0999): 90 ± 4 J/K/mol
- molar heat capacity at constant pressure (338.15 K, x1 = 0.1998): 104 ± 4 J/K/mol
- molar heat capacity at constant pressure (338.15 K, x1 = 0.2987): 118 ± 5 J/K/mol
- molar heat capacity at constant pressure (338.15 K, x1 = 0.3995): 131 ± 6 J/K/mol
- molar heat capacity at constant pressure (338.15 K, x1 = 0.4945): 143 ± 6 J/K/mol
- molar heat capacity at constant pressure (338.15 K, x1 = 0.5987): 155 ± 7 J/K/mol
- molar heat capacity at constant pressure (338.15 K, x1 = 0.6984): 165 ± 7 J/K/mol
- molar heat capacity at constant pressure (338.15 K, x1 = 0.7904): 175 ± 7 J/K/mol
- molar heat capacity at constant pressure (338.15 K, x1 = 0.8865): 184 ± 8 J/K/mol
- molar heat capacity at constant pressure (338.15 K, x1 = 1): 193 ± 8 J/K/mol
- molar heat capacity at constant pressure (343.15 K, x1 = 0.0999): 90 ± 4 J/K/mol
- molar heat capacity at constant pressure (343.15 K, x1 = 0.1998): 105 ± 4 J/K/mol
- molar heat capacity at constant pressure (343.15 K, x1 = 0.2987): 119 ± 5 J/K/mol
- molar heat capacity at constant pressure (343.15 K, x1 = 0.3995): 132 ± 6 J/K/mol
- molar heat capacity at constant pressure (343.15 K, x1 = 0.4945): 144 ± 6 J/K/mol
- molar heat capacity at constant pressure (343.15 K, x1 = 0.5987): 156 ± 7 J/K/mol
- molar heat capacity at constant pressure (343.15 K, x1 = 0.6984): 167 ± 7 J/K/mol
- molar heat capacity at constant pressure (343.15 K, x1 = 0.7904): 177 ± 8 J/K/mol
- molar heat capacity at constant pressure (343.15 K, x1 = 0.8865): 186 ± 8 J/K/mol
- molar heat capacity at constant pressure (343.15 K, x1 = 1): 194 ± 8 J/K/mol
- molar heat capacity at constant pressure (348.15 K, x1 = 0.0999): 91 ± 4 J/K/mol
- molar heat capacity at constant pressure (348.15 K, x1 = 0.1998): 106 ± 5 J/K/mol
- molar heat capacity at constant pressure (348.15 K, x1 = 0.2987): 120 ± 5 J/K/mol
- molar heat capacity at constant pressure (348.15 K, x1 = 0.3995): 133 ± 6 J/K/mol
- molar heat capacity at constant pressure (348.15 K, x1 = 0.4945): 146 ± 6 J/K/mol
- molar heat capacity at constant pressure (348.15 K, x1 = 0.5987): 158 ± 7 J/K/mol
- molar heat capacity at constant pressure (348.15 K, x1 = 0.6984): 169 ± 7 J/K/mol
- molar heat capacity at constant pressure (348.15 K, x1 = 0.7904): 179 ± 8 J/K/mol
- molar heat capacity at constant pressure (348.15 K, x1 = 0.8865): 188 ± 8 J/K/mol
- molar heat capacity at constant pressure (348.15 K, x1 = 1): 197 ± 8 J/K/mol
- molar heat capacity at constant pressure (353.15 K, x1 = 0.0999): 91 ± 4 J/K/mol
- molar heat capacity at constant pressure (353.15 K, x1 = 0.1998): 107 ± 5 J/K/mol
- molar heat capacity at constant pressure (353.15 K, x1 = 0.2987): 121 ± 5 J/K/mol
- molar heat capacity at constant pressure (353.15 K, x1 = 0.3995): 135 ± 6 J/K/mol
- molar heat capacity at constant pressure (353.15 K, x1 = 0.4945): 148 ± 6 J/K/mol
- molar heat capacity at constant pressure (353.15 K, x1 = 0.5987): 160 ± 7 J/K/mol
- molar heat capacity at constant pressure (353.15 K, x1 = 0.6984): 171 ± 7 J/K/mol
- molar heat capacity at constant pressure (353.15 K, x1 = 0.7904): 181 ± 8 J/K/mol
- molar heat capacity at constant pressure (353.15 K, x1 = 0.8865): 191 ± 8 J/K/mol
- molar heat capacity at constant pressure (353.15 K, x1 = 1): 199 ± 8 J/K/mol
